Test results from US6911432B2, “Drugs, foods or drinks with the use of algae-derived physiologically active substances” (priority 1997, dated 2005).

System: Mouse melanoma cell B16BL6
Assay: inhibition of melanin production, absorbance at 400 nm
Assay type: cell-based
Experimental: Mouse melanoma cell B16BL6 suspended in RPMI-1640 containing 10% FBS was placed in a 6 well plate at a concentration of 5×10^4 cells/2 ml medium/well and incubated at 37° C. On the 2nd day, 100 μl of agarobiose solution (2 mg/ml to 0.2 mg/ml) was added thereto, and on the 7th day, the medium was changed and, at the same time, 100 μl of agarobiose solution (2 mg/ml to 0.2 mg/ml) was added thereto. On the 8th day, the cells were collected, DNA, RNA and protein were decomposed, and then the absorbance at 400 nm was measured to examine an activity of inhibiting melanin production.
Namely, after removing the medium by suction, 0.3 ml of 0.25% trypsin dissolved in 20 mM EDTA solution was added to each well and the plate was incubated at 37° C. for 10 minutes. Then, 2 ml of the fresh medium was added to the well and the cells were suspended. The suspension was collected into a test tube. The medium was then removed by centrifugation and the cells were suspended in 2 ml of PBS and centrifuged again. After removing the supernatant, 30 μl of 50 mM sodium acetate buffer (pH 5.0) containing 5 mM manganese chloride and 1 μl of 70,000 U/ml DNase I (manufactured by Takara Shuzo) were added to the cells and thoroughly mixed. The mixture was incubated at 37° C. for 2 hours to decompose DNA. Then, 1 μl of 10 mg/ml ribonuclease A (manufactured by Sigma) was added to the mixture and the resultant mixture was incubated at 50° C. for 1 hour to decompose RNA. Finally, 100 mM Tris-hydrochloric acid buffer (pH 7.8) containing 100 μg/ml proteinase K (manufactured by Sigma), 0.1% Triton x and 10 mM EDTA was added thereto to make the total volume up to 200 μl for 2×10^6 cells, and the mixture was incubated at 37° C. for 16 hours and then the absorbance at 400 nm was measured.

For OC[C@H]1O[C@@H](O[C@H]2[C@H]3OC[C@@H]2OC(O)[C@H]3O)[C@H](O)[C@@H](O)[C@H]1O (mixture of isomers) [Agarobiose, agarobiose], the “Absorbance at 400 nm mean” value (agarobiose 10 μg/ml) was 0.521, the “Absorbance at 400 nm mean” value (agarobiose 50 μg/ml) was 0.392 and the “Absorbance at 400 nm mean” value (agarobiose 100 μg/ml) was 0.383. The “activity of inhibiting melanin production (in words)” value (agarobiose at 50 and 100 μg/ml) was “recognized”.
